# Experimental data as given in ChEMBL document CHEMBL4177704, “Synthesis and biological evaluation of water-soluble derivatives of chiral gossypol as HIV fusion inhibitors targeting gp41” (Bioorg Med Chem Lett, 2018).
# Assays:
# TZM = assay: Cytotoxicity against human TZM-bl cells after 72 hrs by MTT assay; type: cell-based; conditions: tzm, 72 h
# [1] = test system: Human immunodeficiency virus 1; assay: Antiviral activity against HIV-1 3B infected in human TZM-bl cells treated for 2 hrs followed by compound washout measured after 2 days by luciferase reporter assay; type: functional, organism-based
# [2] = Selectivity index, ratio of CC50 for human TZM-bl cells to IC50 for HIV-1 3B infected in human TZM-bl cells; type: toxicity, cell-based; conditions: for selectivity ratio: TZM-bl cells, read-out: Ratio CC50/IC50
Structure (SMILES),IC50 [1] [µM],CC50 (TZM) [µM],Ratio CC50/IC50 [2],selectivity ratio [2]
"Cc1cc2c(c(O)c1-c1c(C)cc3c(c1O)/C(=C/NC(C)C(=O)NC(C)C(=O)NC(C)C(=O)[O-])C(=O)C(O)=C3C(C)C)/C(=C/NC(C)C(=O)NC(C)C(=O)NC(C)C(=O)[O-])C(=O)C(O)=C2C(C)C.[Na+].[Na+] (single isomer, unassigned; (-))",1.45,39.4,27.19,
Cc1cc2c(c(O)c1-c1c(C)cc3c(c1O)/C(=C/NC(C)C(=O)NC(Cc1ccccc1)C(=O)[O-])C(=O)C(O)=C3C(C)C)/C(=C/NC(C)C(=O)NC(Cc1ccccc1)C(=O)[O-])C(=O)C(O)=C2C(C)C.[Na+].[Na+] (stereo in doubt; (-)-5a),1.62,33.3,20.57,
Cc1cc2c(c(O)c1-c1c(C)cc3c(c1O)/C(=C/NCC(=O)NCC(=O)NCC(=O)[O-])C(=O)C(O)=C3C(C)C)/C(=C/NCC(=O)NCC(=O)NCC(=O)[O-])C(=O)C(O)=C2C(C)C.[Na+].[Na+] (stereo in doubt; (-)-6a),1.38,43.8,31.71,
Cc1cc2c(c(O)c1-c1c(C)cc3c(c1O)/C(=C/N[C@@H](Cc1c[nH]c4ccccc14)C(=O)[O-])C(=O)C(O)=C3C(C)C)/C(=C/N[C@@H](Cc1c[nH]c3ccccc13)C(=O)[O-])C(=O)C(O)=C2C(C)C.[Na+].[Na+] (stereo in doubt; (-)-12a),1.08,48.2,44.66,
Cc1cc2c(c(O)c1-c1c(C)cc3c(c1O)/C(=C/N[C@@H](Cc1ccccc1)C(=O)O)C(=O)C(O)=C3C(C)C)/C(=C/N[C@@H](Cc1ccccc1)C(=O)O)C(=O)C(O)=C2C(C)C (stereo in doubt; (-)-13a),6.99,37.7,,5.39

# Second part, led by results:
IC50 [1] [µM],Structure (SMILES),CC50 (TZM) [µM],Ratio CC50/IC50 [2],selectivity ratio [2]
1.25,"Cc1cc2c(c(O)c1-c1c(C)cc3c(c1O)/C(=C/NC(CC(=O)[O-])C(=O)NC(C)C(=O)[O-])C(=O)C(O)=C3C(C)C)/C(=C/NC(CC(=O)[O-])C(=O)NC(C)C(=O)[O-])C(=O)C(O)=C2C(C)C.[Na+].[Na+].[Na+].[Na+] (single isomer, unassigned; (-))",42.6,34.1,
1.56,"Cc1cc2c(c(O)c1-c1c(C)cc3c(c1O)/C(=C/NC(C)C(=O)NCC(=O)O)C(=O)C(O)=C3C(C)C)/C(=C/NC(C)C(=O)NCC(=O)O)C(=O)C(O)=C2C(C)C (single isomer, unassigned; (-))",40.3,,25.8
0.35,Cc1cc2c(c(O)c1-c1c(C)cc3c(c1O)/C(=C/N[C@@H](C)C(=O)[O-])C(=O)C(O)=C3C(C)C)/C(=C/N[C@@H](C)C(=O)[O-])C(=O)C(O)=C2C(C)C.[Na+].[Na+] (stereo in doubt; (-)-8a),64.2,183.29,
0.49,Cc1cc2c(c(O)c1-c1c(C)cc3c(c1O)/C(=C/N[C@H](C(=O)[O-])C(C)C)C(=O)C(O)=C3C(C)C)/C(=C/N[C@H](C(=O)[O-])C(C)C)C(=O)C(O)=C2C(C)C.[Na+].[Na+] (stereo in doubt; (-)-9a),49.9,101.82,
0.68,Cc1cc2c(c(O)c1-c1c(C)cc3c(c1O)/C(=C/N[C@@H](CC(C)C)C(=O)[O-])C(=O)C(O)=C3C(C)C)/C(=C/N[C@@H](CC(C)C)C(=O)[O-])C(=O)C(O)=C2C(C)C.[Na+].[Na+] (stereo in doubt; (-)-10a),53.3,78.41,
0.47,CC[C@H](C)[C@H](N/C=C1\C(=O)C(O)=C(C(C)C)c2cc(C)c(-c3c(C)cc4c(c3O)/C(=C/N[C@H](C(=O)[O-])[C@@H](C)CC)C(=O)C(O)=C4C(C)C)c(O)c21)C(=O)[O-].[Na+].[Na+] (stereo in doubt; (-)-11a),62.2,132.29,
